Assay: xn = mol fraction of the nth substance listed

CCNCC + CCCCCCCO
viscosity [mPa·s], 100 kPa
Conditions | x1 = 0.0806 | x1 = 0.1606 | x1 = 0.2415 | x1 = 0.3492 | x1 = 0.4394 | x1 = 0.5613 | x1 = 0.6506 | x1 = 0.7401 | x1 = 0.8503 | x1 = 0.9414
293.15 K | 6.26 | 5.55 | 4.87 | 4.03 | 3.37 | 2.55 | 2.02 | 1.52 | 0.947 | 0.532
303.15 K | 4.47 | 3.94 | 3.45 | 2.83 | 2.36 | 1.78 | 1.4 | 1.07 | 0.7 | 0.43
313.15 K | 3.3 | 2.91 | 2.53 | 2.07 | 1.72 | 1.3 | 1.03 | 0.79 | 0.52 | 0.35
323.15 K | 2.47 | 2.17 | 1.89 | 1.54 | 1.28 | 0.97 | 0.78 | 0.6 | 0.42 | 0.3

COCCOCCOCCO + O=C1CCCN1
298.15 K, 101 kPa
Conditions | viscosity [mPa·s]
x1 = 0.0024 | 14.16
x1 = 0.0071 | 13.98
x1 = 0.0099 | 13.92
x1 = 0.0137 | 13.86
x1 = 0.026 | 13.66
x1 = 0.0397 | 13.43
x1 = 0.0605 | 13.11
x1 = 0.085 | 12.74
x1 = 0.1404 | 12.01
x1 = 0.1689 | 11.65
x1 = 0.2026 | 11.29
x1 = 0.24 | 10.92
x1 = 0.2913 | 10.46
x1 = 0.3429 | 10.04
x1 = 0.3916 | 9.679
x1 = 0.4401 | 9.334
x1 = 0.4897 | 9.091
x1 = 0.5674 | 8.598
x1 = 0.6133 | 8.347
x1 = 0.6641 | 8.188
x1 = 0.7172 | 7.889
x1 = 0.7708 | 7.642
x1 = 0.8177 | 7.419
x1 = 0.8659 | 7.145
x1 = 0.9053 | 6.89
x1 = 0.9402 | 6.677
x1 = 0.9788 | 6.466
x2 = 0.009 | 6.323

Oc1ccc2ccccc2c1 + CCO
viscosity [mPa·s], 101 kPa
Conditions | x1 = 0.03 | x1 = 0.06 | x1 = 0.09 | x1 = 0.12 | x1 = 0.15
293.15 K | 1.428 | 1.684 | 1.969 | 2.28 | 2.641
303.15 K | 1.162 | 1.351 | 1.588 | 1.836 | 2.093
313.15 K | 0.975 | 1.125 | 1.305 | 1.487 | 1.669
323.15 K | 0.801 | 0.92 | 1.063 | 1.217 | 1.374

CCCBr + c1ccccc1
308.15 K, 101 kPa
Conditions | viscosity [mPa·s]
x2 = 0.1021 | 0.4369
x2 = 0.2992 | 0.4373
x2 = 0.3987 | 0.4413
x2 = 0.5041 | 0.4461
x2 = 0.6028 | 0.4525
x2 = 0.7033 | 0.4619
x2 = 0.8414 | 0.478
x2 = 0.8979 | 0.4898

O=S(=O)([O-])[O-].[Ni+2] + O
viscosity [mPa·s], 101 kPa
Conditions | x1 = 0.00332 | x1 = 0.0106 | x1 = 0.01799 | x1 = 0.02625 | x1 = 0.0309 | x1 = 0.04249
298.15 K | 1.04 | 1.32 | 1.82 | 2.66 | 3.13 | 5.21
313.15 K | 0.762 | 0.934 | 1.283 | 1.83 | 2.145 | 3.462

CCC(O)CO (stereo unspecified) + CC(C)CO
viscosity [mPa·s], 100 kPa
Conditions | x2 = 0.1 | x2 = 0.201 | x2 = 0.3 | x2 = 0.4 | x2 = 0.5 | x2 = 0.6 | x2 = 0.698 | x2 = 0.8 | x2 = 0.899
298.15 K | 37.85 | 28.47 | 21.1 | 15.45 | 10.88 | 7.762 | 6.307 | 5.182 | 3.998
303.15 K | 28.29 | 21.56 | 16.11 | 12.08 | 8.609 | 6.351 | 5.187 | 4.312 | 3.375
308.15 K | 21.44 | 16.65 | 12.67 | 9.596 | 7.019 | 5.289 | 4.334 | 3.62 | 2.873
313.15 K | 16.62 | 13.03 | 10.31 | 7.809 | 5.758 | 4.449 | 3.635 | 3.062 | 2.473
318.15 K | 13.08 | 10.42 | 8.093 | 6.339 | 4.851 | 3.692 | 3.08 | 2.621 | 2.141
323.15 K | 10.47 | 8.442 | 6.689 | 5.231 | 3.969 | 3.154 | 2.639 | 2.253 | 1.855

CCNCC + CCCC(C)O
viscosity [mPa·s], 100 kPa
Conditions | 293.15 K | 298.15 K | 303.15 K | 308.15 K | 313.15 K | 318.15 K | 323.15 K
x1 = 0.0218 | 3.75 | 3.12 | 2.6 | 2.18 | 1.85 | 1.59 | 1.37
x1 = 0.081 | 3.2 | 2.7 | 2.28 | 1.92 | 1.66 | 1.44 | 1.25
x1 = 0.16 | 2.57 | 2.207 | 1.9 | 1.62 | 1.42 | 1.25 | 1.1
x1 = 0.2399 | 2.04 | 1.78 | 1.555 | 1.35 | 1.204 | 1.07 | 0.96
x1 = 0.3499 | 1.5 | 1.33 | 1.18 | 1.05 | 0.945 | 0.858 | 0.78
x1 = 0.44 | 1.16 | 1.04 | 0.94 | 0.85 | 0.778 | 0.71 | 0.65
x1 = 0.56 | 0.84 | 0.76 | 0.7 | 0.644 | 0.592 | 0.544 | 0.494
x1 = 0.6501 | 0.68 | 0.629 | 0.577 | 0.53 | 0.489 | 0.446 | 0.41
x1 = 0.74 | 0.552 | 0.506 | 0.466 | 0.435 | 0.4 | 0.367 | 0.34
x1 = 0.8497 | 0.45 | 0.416 | 0.387 | 0.36 | 0.335 | 0.311 | 0.285
x1 = 0.9397 | 0.368 | 0.346 | 0.325 | 0.304 | 0.285 | 0.268 | 0.25
x2 = 0.0189 | 0.332 | 0.316 | 0.3 | 0.283 | 0.268 | 0.254 | 0.24

— the CheMixHub viscosity set
